“And” between values parts separate entries of the source, which are not always exact repeats. Equal entries are not always repeated. Inconclusive results and toxic doses are left out. Cut-off read from the data, not from the text of the source: active = T/C of 150% or more; inactive = T/C below 125%.
System: L1210 leukemia ip in BDF1 mice, survival T/C
Assay: NCI In Vivo Anticancer Drug Screen. Data for tumor model L1210 Leukemia (intraperitoneal) in B6D2F1 (BDF1) mice
Conditions: endpoint: mean survival time, higher = longer survival
In short: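 Survival endpoint. Drug-treated group vs vehicle group, expressed as T divided by C. Tumor passaged by transplantation.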

[1] = dose: 100.0 mg/kg/injection, schedule: Q04DX003 (ip), vehicle: saline
[2] = dose: 100.0 mg/kg/injection, schedule: Q01DX009 (ip), vehicle: Klucel (hydroxypropylcellulose) (HPC)
[3] = dose: 200.0 mg/kg/injection, schedule: Q01DX009 (ip), vehicle: Klucel (hydroxypropylcellulose) (HPC)
[4] = dose: 400.0 mg/kg/injection, schedule: Q01DX009 (ip), vehicle: Klucel (hydroxypropylcellulose) (HPC)
[5] = dose: 50.0 mg/kg/injection, schedule: Q01DX001 (ip), vehicle: saline
[6] = dose: 100.0 mg/kg/injection, schedule: Q01DX001 (ip), vehicle: saline
[7] = dose: 200.0 mg/kg/injection, schedule: Q01DX001 (ip), vehicle: saline
[8] = dose: 200.0 mg/kg/injection, schedule: Q01DX001 (ip), vehicle: carboxymethylcellulose (CMC)
[9] = dose: 400.0 mg/kg/injection, schedule: Q01DX001 (ip), vehicle: carboxymethylcellulose (CMC)
[10] = dose: 50.0 mg/kg/injection, schedule: Q01DX001 (ip), vehicle: carboxymethylcellulose (CMC)
[11] = dose: 50.0 mg/kg/injection, schedule: Q01DX009 (ip), vehicle: saline with Tween-80
[12] = dose: 100.0 mg/kg/injection, schedule: Q01DX009 (ip), vehicle: saline with Tween-80
[13] = dose: 200.0 mg/kg/injection, schedule: Q01DX009 (ip), vehicle: saline with Tween-80
[14] = dose: 400.0 mg/kg/injection, schedule: Q01DX009 (ip), vehicle: saline with Tween-80

Measured: T/C

CC(C)NC(=O)CCl
inactive: dose: 25.0 mg/kg/injection, schedule: Q01DX009 (ip), vehicle: saline 96 % of control | dose: 25.0 mg/kg/injection, schedule: Q04DX003 (ip), vehicle: saline 90 % of control | dose: 50.0 mg/kg/injection, schedule: Q01DX009 (ip), vehicle: saline 91 % of control | dose: 50.0 mg/kg/injection, schedule: Q04DX003 (ip), vehicle: saline 92 % of control | dose: 100.0 mg/kg/injection, schedule: Q01DX009 (ip), vehicle: saline 98 % of control | [1] 102 % of control and 92 % of control

COc1cc(CC2COCC2Cc2ccc3c(c2)OCO3)cc(OC)c1OC (centres undefined)
inactive: dose: 25.0 mg/kg/injection, schedule: Q01DX009 (ip), vehicle: acetone 110 % of control | dose: 50.0 mg/kg/injection, schedule: Q01DX009 (ip), vehicle: acetone 101 % of control | dose: 100.0 mg/kg/injection, schedule: Q01DX009 (ip), vehicle: acetone 103 % of control

N#Cc1ccccc1NC(=O)N(CCCl)N=O
inactive: dose: 2.0 mg/kg/injection, schedule: Q01DX001 (ip), vehicle: carboxymethylcellulose (CMC) 119 % of control | dose: 13.0 mg/kg/injection, schedule: Q01DX009 (ip), vehicle: carboxymethylcellulose (CMC) 124 % of control | dose: 13.3 mg/kg/injection, schedule: Q01DX001 (ip), vehicle: carboxymethylcellulose (CMC) 120 % of control | dose: 20.0 mg/kg/injection, schedule: Q01DX009 (ip), vehicle: carboxymethylcellulose (CMC) 105 % of control | dose: 30.0 mg/kg/injection, schedule: Q01DX009 (ip), vehicle: carboxymethylcellulose (CMC) 108 % of control

Cc1ccnc(NC(=O)Nc2ccc(F)c([N+](=O)[O-])c2)c1
inactive: [2] 91 % of control | [3] 96 % of control | [4] 104 % of control

Cc1ccc(S(=O)(=O)OCCN(CCO)c2cn(C(c3ccccc3)(c3ccccc3)c3ccccc3)c(=O)n(C(c3ccccc3)(c3ccccc3)c3ccccc3)c2=O)cc1
inactive: [5] 93 % of control | [6] 93 % of control | [7] 93 % of control

O=C(CCCC(=O)N=Nc1c(Cl)c(O)c2ccccc2c1O)N=Nc1c(Cl)c(O)c2ccccc2c1O
inactive: dose: 100.0 mg/kg/injection, schedule: Q01DX001 (ip), vehicle: carboxymethylcellulose (CMC) 118 % of control | [8] 101 % of control | [9] 103 % of control

Cc1ccc(NC(=O)c2cc([N+](=O)[O-])cc([N+](=O)[O-])c2)cc1Cl
inactive: [2] 96 % of control | [3] 100 % of control | [4] 88 % of control

CC1(OC(=O)c2ccc([N+](=O)[O-])cc2)CC2CC1c1ccccc12 (centres undefined)
inactive: [10] 90 % of control | [8] 111 % of control | [9] 90 % of control

CC(C)N(CCO)CCO
inactive: [1] 100 % of control | dose: 200.0 mg/kg/injection, schedule: Q04DX003 (ip), vehicle: saline 102 % of control | dose: 400.0 mg/kg/injection, schedule: Q04DX003 (ip), vehicle: saline 100 % of control

CCOC(=O)c1ccc(NC(=O)Oc2cc(C)ccc2C(C)C)cc1
inactive: [2] 94 % of control | [3] 94 % of control | [4] 94 % of control

O=C(NCCO)Nc1cccc2ccccc12
inactive: [6] 95 % of control | [7] 95 % of control | dose: 400.0 mg/kg/injection, schedule: Q01DX001 (ip), vehicle: saline 90 % of control

CC1(C)N=C(N)N=C(N)N1c1cccc(CCCCc2c(Cl)cccc2Cl)c1
inactive: dose: 25.0 mg/kg/injection, schedule: Q01DX001 (ip), vehicle: saline 105 % of control | [5] 86 % of control | [6] 95 % of control

Cc1ccc(NCC(=O)O)cc1
inactive: dose: 100.0 mg/kg/injection, schedule: Q01DX Z (ip), vehicle: methylcellulose (MC) 101 % of control | dose: 200.0 mg/kg/injection, schedule: Q01DX Z (ip), vehicle: methylcellulose (MC) 101 % of control

Fc1ccc(Nc2c3ccccc3nc3ccccc23)cc1
inactive: dose: 25.0 mg/kg/injection, schedule: Q01DX009 (ip), vehicle: saline with Tween-80 92 % of control | [11] 118 % of control | [12] 116 % of control

O=C(O)COc1ccc(C2(c3ccc(OCC(=O)O)cc3)CC3CC2C2CCCC32)cc1 (centres undefined) (tested in a mixture with another compound)
inactive: dose: 100.0 mg/kg/injection, schedule: Q04DX002 (ip), vehicle: saline with Tween-80 93 % of control | dose: 200.0 mg/kg/injection, schedule: Q04DX002 (ip), vehicle: saline with Tween-80 93 % of control | dose: 400.0 mg/kg/injection, schedule: Q04DX002 (ip), vehicle: saline with Tween-80 106 % of control

Cc1cccc(NNC(=S)Nc2ccccc2)c1
inactive: [12] 97 % of control | [13] 97 % of control | [14] 94 % of control

C(=N\N=C\c1ccccc1)/c1ccccc1
inactive: [12] 97 % of control | dose: 100.0 mg/kg/injection, schedule: Q04DX002 (ip), vehicle: Klucel (hydroxypropylcellulose) (HPC) 98 % of control | [13] 100 % of control | dose: 200.0 mg/kg/injection, schedule: Q04DX002 (ip), vehicle: Klucel (hydroxypropylcellulose) (HPC) 91 % of control | [14] 100 % of control | dose: 400.0 mg/kg/injection, schedule: Q04DX002 (ip), vehicle: Klucel (hydroxypropylcellulose) (HPC) 102 % of control

O=C1c2ccccc2CCC12OC2c1ccc(F)cc1 (centres undefined)
inactive: dose: 100.0 mg/kg/injection, schedule: Q04DX003 (ip), vehicle: Klucel (hydroxypropylcellulose) (HPC) 97 % of control | dose: 200.0 mg/kg/injection, schedule: Q04DX003 (ip), vehicle: Klucel (hydroxypropylcellulose) (HPC) 97 % of control | dose: 400.0 mg/kg/injection, schedule: Q04DX003 (ip), vehicle: Klucel (hydroxypropylcellulose) (HPC) 103 % of control

CC(C)(C)C1CCC(N)CC1 (centres undefined)
inactive: dose: 12.5 mg/kg/injection, schedule: Q01DX001 (ip), vehicle: carboxymethylcellulose (CMC) 104 % of control | dose: 25.0 mg/kg/injection, schedule: Q01DX001 (ip), vehicle: carboxymethylcellulose (CMC) 98 % of control | [10] 104 % of control

C#CCCC#C
inactive: [11] 104 % of control | [12] 109 % of control | dose: 100.0 mg/kg/injection, schedule: Q04DX003 (ip), vehicle: saline with Tween-80 103 % of control | [13] 102 % of control | dose: 200.0 mg/kg/injection, schedule: Q04DX003 (ip), vehicle: saline with Tween-80 104 % of control

Source: PubChem BioAssay AID248 (DTP/NCI, 2004)
